Experimental data published in ChEMBL document CHEMBL5465560, “Selectivity Literature for EUbOPEN Chemogenomic Library” (2024).

Tests used:
[1] = biological target: Dual specificity mitogen-activated protein kinase kinase 1 (Homo sapiens, UniProt Q02750); test: Selectivity interaction (Kinase panel (literature)) EUB0001199aCl MAP2K1; conditions: at 1 µM
[2] = biological target: Serine/threonine-protein kinase PLK1 (Homo sapiens, UniProt P53350); test: Selectivity interaction (KinomeScan (DiscoverX)) EUB0000666a PLK1; conditions: at 10 µM
Chain of Serine/threonine-protein kinase PLK1 (P53350 whole entry): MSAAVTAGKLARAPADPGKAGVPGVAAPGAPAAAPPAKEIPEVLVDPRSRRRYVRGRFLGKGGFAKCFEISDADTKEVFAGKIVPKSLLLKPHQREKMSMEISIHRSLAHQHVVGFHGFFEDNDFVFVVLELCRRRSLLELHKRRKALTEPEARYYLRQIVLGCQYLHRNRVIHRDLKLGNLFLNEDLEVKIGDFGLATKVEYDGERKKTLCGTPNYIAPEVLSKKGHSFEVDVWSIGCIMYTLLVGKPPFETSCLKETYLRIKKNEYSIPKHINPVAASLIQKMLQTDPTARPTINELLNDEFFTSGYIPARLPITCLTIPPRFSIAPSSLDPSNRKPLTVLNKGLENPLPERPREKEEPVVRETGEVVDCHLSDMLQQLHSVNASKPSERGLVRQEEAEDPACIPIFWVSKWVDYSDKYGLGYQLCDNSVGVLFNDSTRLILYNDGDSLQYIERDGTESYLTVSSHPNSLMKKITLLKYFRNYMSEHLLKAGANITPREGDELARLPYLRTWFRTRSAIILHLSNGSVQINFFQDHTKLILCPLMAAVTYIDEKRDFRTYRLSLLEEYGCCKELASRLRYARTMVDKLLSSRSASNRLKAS

[3] = biological target: T1, Dual specificity mitogen-activated protein kinase kinase 4 (Homo sapiens) (UniProt P45985); test: Selectivity interaction (ActivX KiNativ screen (kinase selectivity in THP-1 cell lysates)) EUB0000639a MAP2K4; type: subcellular; conditions: lysate, at 1 µM
T1 sequence (whole entry): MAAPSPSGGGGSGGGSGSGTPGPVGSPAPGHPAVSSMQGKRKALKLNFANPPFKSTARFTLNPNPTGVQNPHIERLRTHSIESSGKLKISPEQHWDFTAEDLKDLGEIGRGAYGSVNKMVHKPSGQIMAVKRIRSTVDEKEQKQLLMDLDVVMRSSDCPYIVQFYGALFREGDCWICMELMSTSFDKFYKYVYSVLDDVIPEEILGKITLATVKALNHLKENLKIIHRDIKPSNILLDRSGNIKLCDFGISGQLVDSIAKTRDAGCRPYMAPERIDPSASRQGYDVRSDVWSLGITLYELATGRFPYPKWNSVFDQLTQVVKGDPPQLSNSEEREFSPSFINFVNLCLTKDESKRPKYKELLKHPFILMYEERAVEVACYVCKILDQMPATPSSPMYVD

[4] = biological target: Ribosomal protein S6 kinase alpha-6 (Homo sapiens, UniProt Q9UK32); test: Selectivity interaction (KinomeScan (DiscoverX)) EUB0000595a RPS6KA6; conditions: at 10 µM
[5] = biological target: Serine/threonine-protein kinase MARK1 (Homo sapiens) (UniProt Q9P0L2); test: Selectivity interaction (KinomeScan (DiscoverX)) EUB0000092b MARK1; conditions: at 10 µM
Chain of Serine/threonine-protein kinase MARK1 (Homo sapiens) (Q9P0L2 whole entry, looked up): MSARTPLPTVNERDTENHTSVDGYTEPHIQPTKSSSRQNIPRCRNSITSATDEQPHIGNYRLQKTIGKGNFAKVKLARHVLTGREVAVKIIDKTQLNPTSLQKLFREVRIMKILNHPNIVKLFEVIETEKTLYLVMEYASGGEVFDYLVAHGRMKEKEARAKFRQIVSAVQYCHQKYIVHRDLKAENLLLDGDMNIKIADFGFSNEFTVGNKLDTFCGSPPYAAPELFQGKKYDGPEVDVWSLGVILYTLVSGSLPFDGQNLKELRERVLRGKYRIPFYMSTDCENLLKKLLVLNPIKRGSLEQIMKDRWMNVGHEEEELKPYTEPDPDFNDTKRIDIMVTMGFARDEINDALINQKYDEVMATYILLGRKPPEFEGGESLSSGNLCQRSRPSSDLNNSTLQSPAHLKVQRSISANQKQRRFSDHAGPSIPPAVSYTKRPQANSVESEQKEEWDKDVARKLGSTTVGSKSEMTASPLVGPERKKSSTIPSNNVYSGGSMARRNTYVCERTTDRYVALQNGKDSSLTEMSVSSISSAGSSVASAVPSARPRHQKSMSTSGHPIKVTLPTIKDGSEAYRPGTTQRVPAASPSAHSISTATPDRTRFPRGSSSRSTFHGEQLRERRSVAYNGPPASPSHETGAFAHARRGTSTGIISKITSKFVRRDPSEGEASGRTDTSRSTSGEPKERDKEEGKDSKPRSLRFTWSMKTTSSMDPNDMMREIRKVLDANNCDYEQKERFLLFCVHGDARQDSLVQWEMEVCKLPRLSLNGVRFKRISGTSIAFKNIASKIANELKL

[6] = biological target: Insulin-like growth factor 1 receptor (Homo sapiens, UniProt P08069); test: Selectivity interaction (KinomeScan (DiscoverX)) EUB0000045b IGF1R
Chain of Insulin-like growth factor 1 receptor (P08069 31-736 limits assumed): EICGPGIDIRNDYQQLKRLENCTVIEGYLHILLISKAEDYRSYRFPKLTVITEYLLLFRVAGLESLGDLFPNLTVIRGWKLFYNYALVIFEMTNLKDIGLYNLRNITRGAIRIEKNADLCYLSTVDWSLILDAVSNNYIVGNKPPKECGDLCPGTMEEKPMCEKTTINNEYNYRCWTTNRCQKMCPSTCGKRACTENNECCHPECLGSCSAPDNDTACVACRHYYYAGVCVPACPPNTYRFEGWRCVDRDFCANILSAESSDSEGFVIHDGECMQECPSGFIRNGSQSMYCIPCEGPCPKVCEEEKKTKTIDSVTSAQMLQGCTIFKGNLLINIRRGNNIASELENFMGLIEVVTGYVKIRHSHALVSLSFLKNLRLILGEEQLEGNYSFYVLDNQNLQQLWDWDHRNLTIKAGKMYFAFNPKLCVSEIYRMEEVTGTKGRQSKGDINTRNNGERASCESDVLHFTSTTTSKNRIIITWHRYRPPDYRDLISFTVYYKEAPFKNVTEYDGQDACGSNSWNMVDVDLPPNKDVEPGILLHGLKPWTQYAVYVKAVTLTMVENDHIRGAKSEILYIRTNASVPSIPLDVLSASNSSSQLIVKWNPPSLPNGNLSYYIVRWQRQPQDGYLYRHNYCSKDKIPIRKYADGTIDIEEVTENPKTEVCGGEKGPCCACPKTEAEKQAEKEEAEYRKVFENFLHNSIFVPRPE
Chain of Insulin-like growth factor 1 receptor (P08069 741-1367 limits assumed): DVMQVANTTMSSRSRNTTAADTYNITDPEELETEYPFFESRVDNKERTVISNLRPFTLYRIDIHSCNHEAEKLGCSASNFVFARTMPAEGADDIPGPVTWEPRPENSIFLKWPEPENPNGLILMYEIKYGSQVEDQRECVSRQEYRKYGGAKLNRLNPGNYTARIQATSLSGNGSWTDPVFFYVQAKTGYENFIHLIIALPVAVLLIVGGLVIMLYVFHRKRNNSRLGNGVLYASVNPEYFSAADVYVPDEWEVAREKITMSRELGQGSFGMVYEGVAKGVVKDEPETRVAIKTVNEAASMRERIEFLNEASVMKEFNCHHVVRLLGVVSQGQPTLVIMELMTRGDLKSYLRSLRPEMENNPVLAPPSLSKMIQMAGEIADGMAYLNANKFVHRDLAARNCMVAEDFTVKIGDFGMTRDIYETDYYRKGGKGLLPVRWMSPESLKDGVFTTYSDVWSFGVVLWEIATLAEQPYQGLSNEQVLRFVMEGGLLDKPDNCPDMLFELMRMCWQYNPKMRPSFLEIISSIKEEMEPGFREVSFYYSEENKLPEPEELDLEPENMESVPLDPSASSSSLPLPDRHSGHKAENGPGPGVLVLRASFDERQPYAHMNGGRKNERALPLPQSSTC

[7] = biological target: T2, Protein kinase C iota type (Homo sapiens) (UniProt P41743); test: Selectivity interaction (SelectScreen profiling (Invitrogen)) EUB0000607a PRKCI; conditions: at 2 µM
T2 sequence (whole entry): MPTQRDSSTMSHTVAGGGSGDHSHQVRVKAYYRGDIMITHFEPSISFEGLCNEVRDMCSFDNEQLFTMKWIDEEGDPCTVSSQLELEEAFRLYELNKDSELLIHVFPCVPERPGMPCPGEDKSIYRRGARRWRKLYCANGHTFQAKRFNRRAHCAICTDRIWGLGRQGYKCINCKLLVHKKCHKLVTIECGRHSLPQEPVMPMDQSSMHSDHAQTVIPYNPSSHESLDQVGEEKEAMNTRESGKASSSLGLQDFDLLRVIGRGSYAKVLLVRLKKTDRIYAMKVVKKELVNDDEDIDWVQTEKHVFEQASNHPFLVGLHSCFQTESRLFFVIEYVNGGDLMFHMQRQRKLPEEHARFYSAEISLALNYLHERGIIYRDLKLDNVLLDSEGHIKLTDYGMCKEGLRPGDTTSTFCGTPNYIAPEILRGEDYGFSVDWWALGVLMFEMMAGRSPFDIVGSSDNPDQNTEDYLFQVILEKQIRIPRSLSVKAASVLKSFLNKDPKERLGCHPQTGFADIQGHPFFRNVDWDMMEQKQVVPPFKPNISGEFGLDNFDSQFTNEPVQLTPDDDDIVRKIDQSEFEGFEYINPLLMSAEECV

[8] = biological target: Epidermal growth factor receptor (Homo sapiens, UniProt P00533); test: (§1) Selectivity interaction (SelectScreen profiling (Invitrogen)) EUB0000607a EGFR; conditions: at 2 µM
[9] = tested on: Epidermal growth factor receptor (Homo sapiens), P00533 [T790M]; test: as §1; conditions: at 2 µM
[10] = tested on: Epidermal growth factor receptor (Homo sapiens), P00533 [L861Q]; test: as §1; conditions: at 2 µM
Chain of Epidermal growth factor receptor (Homo sapiens), P00533 [L861Q] (P00533 whole entry L861Q): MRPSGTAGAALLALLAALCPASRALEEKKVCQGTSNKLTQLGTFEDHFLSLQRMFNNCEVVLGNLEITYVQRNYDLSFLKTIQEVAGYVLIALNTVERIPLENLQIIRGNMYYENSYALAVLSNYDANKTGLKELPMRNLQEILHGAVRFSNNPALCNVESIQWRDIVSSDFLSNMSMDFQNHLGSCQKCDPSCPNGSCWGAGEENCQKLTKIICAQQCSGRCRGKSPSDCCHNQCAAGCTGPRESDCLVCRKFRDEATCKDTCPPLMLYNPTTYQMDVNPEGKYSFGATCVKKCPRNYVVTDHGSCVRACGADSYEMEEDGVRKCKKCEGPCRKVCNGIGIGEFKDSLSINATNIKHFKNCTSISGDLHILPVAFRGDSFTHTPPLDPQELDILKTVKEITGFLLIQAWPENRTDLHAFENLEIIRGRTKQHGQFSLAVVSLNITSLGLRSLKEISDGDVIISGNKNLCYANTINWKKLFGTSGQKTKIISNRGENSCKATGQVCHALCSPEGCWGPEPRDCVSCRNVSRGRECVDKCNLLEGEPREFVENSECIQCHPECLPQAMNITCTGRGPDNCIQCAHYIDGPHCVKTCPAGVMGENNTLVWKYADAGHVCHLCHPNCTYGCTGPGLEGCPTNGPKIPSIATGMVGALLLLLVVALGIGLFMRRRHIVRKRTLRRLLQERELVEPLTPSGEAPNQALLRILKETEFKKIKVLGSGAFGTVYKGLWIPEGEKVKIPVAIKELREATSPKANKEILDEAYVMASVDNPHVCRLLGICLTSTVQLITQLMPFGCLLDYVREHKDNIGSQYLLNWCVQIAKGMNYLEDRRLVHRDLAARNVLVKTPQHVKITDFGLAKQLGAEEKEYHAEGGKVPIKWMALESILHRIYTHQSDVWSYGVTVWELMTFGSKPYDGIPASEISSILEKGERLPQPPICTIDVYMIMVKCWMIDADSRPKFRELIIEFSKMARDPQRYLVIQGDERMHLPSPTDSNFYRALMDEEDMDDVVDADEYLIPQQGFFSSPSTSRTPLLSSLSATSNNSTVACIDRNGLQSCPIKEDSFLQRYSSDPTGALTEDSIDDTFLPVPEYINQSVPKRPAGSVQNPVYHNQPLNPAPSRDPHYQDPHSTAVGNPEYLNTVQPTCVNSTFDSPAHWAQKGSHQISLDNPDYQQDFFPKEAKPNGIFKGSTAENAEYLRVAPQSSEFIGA

[11] = tested on: Epidermal growth factor receptor (Homo sapiens), P00533 [L858R]; test: as §1; conditions: at 2 µM
[12] = biological target: T3, Muscarinic acetylcholine receptor M2 (Homo sapiens) (UniProt P08172); test: Selectivity interaction (Panel of kinases, GPCRs, ion channels and transporters (enzymatic assay)) EUB0000223bCl CHRM2
T3 sequence (whole entry): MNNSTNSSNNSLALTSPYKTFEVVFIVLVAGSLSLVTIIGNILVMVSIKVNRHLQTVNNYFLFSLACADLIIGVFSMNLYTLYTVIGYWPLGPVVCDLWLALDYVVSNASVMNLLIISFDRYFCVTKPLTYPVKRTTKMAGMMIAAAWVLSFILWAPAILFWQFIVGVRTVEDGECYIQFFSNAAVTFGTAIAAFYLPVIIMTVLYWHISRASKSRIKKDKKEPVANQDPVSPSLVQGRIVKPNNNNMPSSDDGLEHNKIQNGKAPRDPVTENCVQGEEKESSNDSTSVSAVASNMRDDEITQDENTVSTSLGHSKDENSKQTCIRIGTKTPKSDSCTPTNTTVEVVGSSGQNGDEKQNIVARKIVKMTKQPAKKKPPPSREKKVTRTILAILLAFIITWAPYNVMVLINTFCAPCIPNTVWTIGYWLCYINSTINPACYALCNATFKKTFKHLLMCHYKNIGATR

Chain of Dual specificity mitogen-activated protein kinase kinase 1 (Q02750 whole entry): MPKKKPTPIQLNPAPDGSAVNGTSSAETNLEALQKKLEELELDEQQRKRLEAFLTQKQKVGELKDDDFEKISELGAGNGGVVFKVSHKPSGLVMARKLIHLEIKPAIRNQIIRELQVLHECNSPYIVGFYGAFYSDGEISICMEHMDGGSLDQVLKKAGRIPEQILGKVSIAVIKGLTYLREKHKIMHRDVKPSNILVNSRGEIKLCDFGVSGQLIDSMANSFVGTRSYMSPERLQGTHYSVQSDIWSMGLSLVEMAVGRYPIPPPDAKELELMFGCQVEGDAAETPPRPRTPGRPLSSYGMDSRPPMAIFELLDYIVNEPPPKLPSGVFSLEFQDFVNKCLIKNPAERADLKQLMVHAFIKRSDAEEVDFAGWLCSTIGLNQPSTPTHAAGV

CN1Cc2nccc(-c3cn(C)nc3-c3ccc(F)cc3)c2C1=O
% of inhibition [1]: -4%

O=C(NOC[C@H](O)CO)c1ccc(F)c(F)c1Nc1ccc(I)cc1F
% of control [2]: 72%

CC[C@@H]1[C@H](F)C(=O)N[C@@H]1COc1nccc2cc(C(N)=O)c(OC)cc12 [ZIMLOVISERTIB]
% of inhibition [3]: 17.3%

COCC(=O)NC/C=C/c1ccc2ncnc(Nc3ccc(Oc4ccc(C)nc4)c(C)c3)c2c1 [CP-724714]
% of control [4]: 88%

CCC(=O)N1CCN(c2ccc(-n3c(=O)ccc4cnc5ccc(-c6cnc7ccccc7c6)cc5c43)cc2C(F)(F)F)CC1
% of control [5]: 100%

C=CC(=O)Nc1cc(-n2c(=O)ccc3cnc4ccc(-c5ccc(NS(C)(=O)=O)cc5)cc4c32)ccc1C
% of control ([6]; at 1 µM): 100% | % of control ([6]; at 10 µM): 80%

CNC(=O)Nc1ccc(-c2nc(N3CC4CCC(C3)O4)c3cnn(C4CCC5(CC4)OCCO5)c3n2)cc1
% of inhibition [7]: 6% | % of inhibition [8]: 1% | % of inhibition [9]: 2% | % of inhibition [10]: -1% | % of inhibition [11]: 3%

COc1cc(C(=O)N2CC[C@@H](O)[C@@H](N)C2)cc2nc(-c3cc4ccccc4n3CC3CC3)n(C)c12
pXC50 [12]: < 4.8 M
